Data: patent US20260297042A1, “BIARYLAMIDE DERIVATIVES AND THEIR USE AS PKMYT1 INHIBITORS” (CANCER RESEARCH TECHNOLOGY LIMITED, priority 2023, published 2026)

Assays:
WEE1 = biological target: T1, WEE1 (Homo sapiens, UniProt P30291); assay: Selectivity versus WEE1 assay (ADP-Glo enzymatic assay); assay type: biochemical; details: banded; for IC50: ADP-Glo, 15 nM WEE1, 60 minutes at 26° C.; for PKMYT1 vs. WEE1 selectivity: fold difference in selectivity for PKMYT1 over WEE1, ">N" = at least in this band but could be higher
T1 construct: purchased Thermo Fisher PR7373A
T1 sequence (P30291 whole entry): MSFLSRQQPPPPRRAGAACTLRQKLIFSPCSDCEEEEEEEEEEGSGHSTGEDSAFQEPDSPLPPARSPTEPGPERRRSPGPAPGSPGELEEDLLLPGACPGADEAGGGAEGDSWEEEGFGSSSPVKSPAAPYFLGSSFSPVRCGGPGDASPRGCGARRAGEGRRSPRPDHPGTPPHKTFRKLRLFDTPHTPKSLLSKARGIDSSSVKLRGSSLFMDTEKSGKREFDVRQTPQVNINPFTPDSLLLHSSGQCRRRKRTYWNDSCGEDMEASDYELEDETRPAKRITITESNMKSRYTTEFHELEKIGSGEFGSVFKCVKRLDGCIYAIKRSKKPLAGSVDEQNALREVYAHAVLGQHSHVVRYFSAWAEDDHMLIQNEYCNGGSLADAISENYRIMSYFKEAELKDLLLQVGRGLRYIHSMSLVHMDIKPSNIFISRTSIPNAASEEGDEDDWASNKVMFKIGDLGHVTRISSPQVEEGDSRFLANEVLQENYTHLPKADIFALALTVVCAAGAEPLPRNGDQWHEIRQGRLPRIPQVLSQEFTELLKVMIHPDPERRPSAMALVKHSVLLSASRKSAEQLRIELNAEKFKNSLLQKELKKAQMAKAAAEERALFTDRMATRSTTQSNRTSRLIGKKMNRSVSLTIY
Experimental: Selectivity versus WEE1 assay: Selectivity was established using the same format as outlined for PKMYT1. After dosing of compounds via the Echo acoustic dispenser—as described above—WEE1 (Thermo Fisher PR7373A) was added to each well at a final concentration of 15 nM in a buffer of 50 mM HEPES (pH 7.5), 10 mM MgCl2, 1 mM EGTA, 0.01% Brij-35, 1% DMSO. 30 µM ATP was added to start the reaction with the final assay volume being 4 μl. The plate was then incubated for 60 minutes at 26° C. before the addition of 4 μl of ADP-Glo Reagent. Following a further 60 minute incubation the assay signal was developed by the addition of 8 μl ADP-Glo Detection Reagent. After 60 minutes the luminescence signal was read on a PHERAStar FS microplate reader (BMG Labtech).
(§1) Data analysis: Data was captured and analysed within the Dotmatics Studies software module where dose response curves were generated and IC50 values determined. Acceptance and verification of data followed strict in-house business rules which are summarised as follows. […] Technical and biological replicates of each compound are routinely tested and replicate IC50 values must fall within 3-fold of each other with dose response curves showing ‘goodness of fit’ r2 values >0.9. Failure to meet any of these defined criteria result in rejection of data.

Human PKMYT1 = biological target: T2, Human PKMYT1 (Homo sapiens, UniProt Q99640); assay: PKMYT1 biochemical ADP-Glo enzymatic assay
T2 construct: Human PKMYT1 75-362 was cloned as a TEV cleavable 6xHis fusion; 6xHis (TEV cleavable) (cleaved yes); made in house; host or cells: bacterial cells
T2 sequence (Q99640 75-362): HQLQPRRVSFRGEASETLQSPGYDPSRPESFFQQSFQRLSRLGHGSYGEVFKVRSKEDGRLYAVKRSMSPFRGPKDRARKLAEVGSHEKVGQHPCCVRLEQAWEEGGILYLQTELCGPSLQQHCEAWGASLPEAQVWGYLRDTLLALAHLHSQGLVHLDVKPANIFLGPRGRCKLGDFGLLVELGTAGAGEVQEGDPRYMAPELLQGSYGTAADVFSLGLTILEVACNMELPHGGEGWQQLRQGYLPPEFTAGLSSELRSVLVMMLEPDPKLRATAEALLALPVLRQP
Experimental: Human PKMYT1 75-362 was cloned as a TEV cleavable 6xHis fusion in bacterial cells. After purification on a Ni++HiTrap Chelating HP column, the His-tag was cleaved using TEV protease. Cleaved PKMYT1 was further purified on a Superdex 200 16/600 sizing column. The fractions containing PKMYT1 were pooled and concentrated using an ultrafiltration centrifugal protein concentrator. The purified protein was aliquoted, flash frozen in liquid nitrogen, and stored at −80° C.
PKMYT1 biochemical assay: Inhibition of PKMYT1 was assessed using the ADP-Glo™ Max Detection System from Promega. This assay detects the production of ADP from ATP by PKMYT1 via a two-step process ultimately involving the conversion of ADP to ATP with the latter converted to light in a coupled reaction with luciferase/luciferin. Inhibition of PKMYT1 by small molecule inhibitors results in a retardation of luminescence above background. The intrinsic ATPase activity of PKMYT1 was assessed according to the following protocol. Compounds were dosed into Corning white low volume 384 well assay plates using an Echo acoustic dispenser to generate 10-point curves spanning a 3-fold dilution series. DMSO (no inhibitor) control wells were prepared to benchmark the maximum and minimum signals in the presence and absence of PKMYT1, respectively. The PKMYT1 kinase domain was purified in-house, as described above, and added to the wells at a final concentration of 15 nM in a buffer of 50 mM HEPES (pH 7.5), 10 mM MgCl2, 1 mM EGTA, 0.01% Brij-35, 1% DMSO. 500 µM ATP was added to start the reaction with the final assay volume being 4 μl. The plate was then incubated for 60 minutes at 26° C. before the addition of 4 μl of ADP-Glo Reagent to stop the reaction and deplete the unconsumed ATP. Following a further 60 minute incubation the assay signal was developed by the addition of 8 μl ADP-Glo Max Detection Reagent. After 60 minutes the luminescence signal was read on a PHERAStar FS microplate reader (BMG Labtech).
as §1

[1] = ADP-Glo, 15 nM PKMYT1 kinase domain, 500 µM ATP, 60 minutes at 26° C., banded

Row | IC50 (WEE1) | PKMYT1 vs. WEE1 selectivity (WEE1) | IC50 (Human PKMYT1; [1]) | IC50 (Human PKMYT1; PKMYT1 biochemical ADP-Glo enzymatic assay, Comparison Data 1) | improvement in PKMYT1 IC50 as compared to REF-001 (Human PKMYT1; vs REF-001) | improvement in PKMYT1 IC50 as compared to REF-002 (Human PKMYT1; vs REF-002) | IC50 (Human PKMYT1; PKMYT1 biochemical ADP-Glo enzymatic assay, Comparison Data 2) | improvement in PKMYT1 IC50 as compared to REF-003 (Human PKMYT1; vs REF-003) | improvement in PKMYT1 IC50 as compared to REF-004 (Human PKMYT1; vs REF-004) | SMILES
1 | > 11 µM | X (100-<1000 fold) | 0.05 to 1 µM | 0.327 µM | 163 fold | 82 fold | – | – | – | Cc1ccc(O)c(C)c1NC(=O)c1cnc(N)s1 [BAA-001, 2-Amino-N-(3-hydroxy-2,6-dimethyl-phenyl)thiazole-5-carboxamide]
2 | 1 to 11 µM | W (10-<100 fold) | < 0.05 µM | – | – | – | – | – | – | Cc1ccc(O)c(C)c1NC(=O)c1cnc(Nc2ccn(CCCO)n2)s1 [BAA-002, N-(3-Hydroxy-2,6-dimethyl-phenyl)-2-[[1-(3-hydroxypropyl)pyrazol-3-yl]amino]thiazole-5-carboxamide]
3 | > 11 µM | W (10-<100 fold) | 1 to 11 µM | – | – | – | – | – | – | Cc1ccc(O)c(C)c1NC(=O)c1cnc(Nc2cc[nH]n2)s1 [BAA-003, N-(3-hydroxy-2,6-dimethyl-phenyl)-2-(1H-pyrazol-3-ylamino)thiazole-5-carboxamide]
4 | 1 to 11 µM | X (100-<1000 fold) | 0.05 to 1 µM | – | – | – | 0.055 µM | 987 fold | > 1800 fold | Cc1ccc(O)c(C)c1NC(=O)c1cnc(Nc2ccn(C)n2)s1 [BAA-004, N-(3-hydroxy-2,6-dimethyl-phenyl)-2-[(1-methylpyrazol-3-yl)amino]thiazole-5-carboxamide]
5 | 1 to 11 µM | X (100-<1000 fold) | < 0.05 µM | – | – | – | – | – | – | CCn1ccc(Nc2ncc(C(=O)Nc3c(C)ccc(O)c3C)s2)n1 [BAA-005, 2-[(1-ethylpyrazol-3-yl)amino]-N-(3-hydroxy-2,6-dimethyl-phenyl)thiazole-5-carboxamide]
6 | > 11 µM | X (100-<1000 fold) | 0.05 to 1 µM | – | – | – | – | – | – | CCCn1ccc(Nc2ncc(C(=O)Nc3c(C)ccc(O)c3C)s2)n1 [BAA-006, N-(3-hydroxy-2,6-dimethyl-phenyl)-2-[(1-propylpyrazol-3-yl)amino]thiazole-5-carboxamide]
7 | 0.05 to 1 µM | W (10-<100 fold) | < 0.05 µM | – | – | – | – | – | – | Cc1ccc(O)c(C)c1NC(=O)c1cnc(Nc2ccn(C3COC3)n2)s1 [BAA-007, N-(3-hydroxy-2,6-dimethyl-phenyl)-2-[[1-(oxetan-3-yl)pyrazol-3-yl]amino]thiazole-5-carboxamide]
8 | 1 to 11 µM | X (100-<1000 fold) | 0.05 to 1 µM | – | – | – | – | – | – | Cc1ccc(O)c(C)c1NC(=O)c1cnc(Nc2ccn(C(C)C)n2)s1 [BAA-008, N-(3-hydroxy-2,6-dimethyl-phenyl)-2-[(1-isopropylpyrazol-3-yl)amino]thiazole-5-carboxamide]
9 | > 11 µM | X (100-<1000 fold) | < 0.05 µM | – | – | – | – | – | – | Cc1ccc(O)c(C)c1NC(=O)c1cnc(Nc2ccon2)s1 [BAA-009, N-(3-hydroxy-2,6-dimethyl-phenyl)-2-(isoxazol-3-ylamino)thiazole-5-carboxamide]
10 | > 11 µM | Y (1000-5000 fold) | 0.05 to 1 µM | – | – | – | – | – | – | Cc1ccc(O)c(C)c1NC(=O)c1cnc(Nc2ccnn2C)s1 [BAA-010, N-(3-hydroxy-2,6-dimethyl-phenyl)-2-[(2-methylpyrazol-3-yl)amino]thiazole-5-carboxamide]
11 | 1 to 11 µM | W (10-<100 fold) | < 0.05 µM | – | – | – | – | – | – | Cc1ccc(O)c(C)c1NC(=O)c1cnc(Nc2ccn(CCO)n2)s1 [BAA-011]
12 | 1 to 11 µM | W (10-<100 fold) | 0.05 to 1 µM | – | – | – | – | – | – | CCCCn1ccc(Nc2ncc(C(=O)Nc3c(C)ccc(O)c3C)s2)n1 [BAA-012, 2-[(1-butylpyrazol-3-yl)amino]-N-(3-hydroxy-2,6-dimethyl-phenyl)thiazole-5-carboxamide]
13 | 1 to 11 µM | W (10-<100 fold) | < 0.05 µM | – | – | – | – | – | – | Cc1ccc(O)c(C)c1NC(=O)c1cnc(Nc2ccn(C3CCCC3)n2)s1 [BAA-014, 2-[(1-cyclopentylpyrazol-3-yl)amino]-N-(3-hydroxy-2,6-dimethyl-phenyl)thiazole-5-carboxamide]
14 | 1 to 11 µM | X (100-<1000 fold) | < 0.05 µM | – | – | – | – | – | – | Cc1ccc(O)c(C)c1NC(=O)c1cnc(Nc2ccn(C3CCCCC3)n2)s1 [BAA-015, 2-[(1-cyclohexylpyrazol-3-yl)amino]-N-(3-hydroxy-2,6-dimethyl-phenyl)thiazole-5-carboxamide]
15 | > 11 µM | >X (100-<1000 fold) | 0.05 to 1 µM | – | – | – | – | – | – | Cc1ccc(O)c(C)c1NC(=O)c1cnc(Nc2nc(C(F)(F)F)cs2)s1 [BAA-017]
16 | > 11 µM | X (100-<1000 fold) | < 0.05 µM | – | – | – | – | – | – | Cc1ccc(O)c(C)c1NC(=O)c1cnc(Nc2nc(CO)cs2)s1 [BAA-018]
17 | > 11 µM | X (100-<1000 fold) | 0.05 to 1 µM | – | – | – | – | – | – | Cc1ccc(O)c(C)c1NC(=O)c1cnc(Nc2ccn(CC(F)(F)F)n2)s1 [BAA-019, N-(3-hydroxy-2,6-dimethyl-phenyl)-2-[[1-(2,2,2-trifluoroethyl)pyrazol-3-yl]amino]thiazole-5-carboxamide]
18 | > 11 µM | >X (100-<1000 fold) | 0.05 to 1 µM | – | – | – | – | – | – | Cc1ccc(O)c(C)c1NC(=O)c1cnc(Nc2sccc2C(N)=O)s1 [BAA-021, 2-[(3-carbamoyl-2-thienyl)amino]-N-(3-hydroxy-2,6-dimethyl-phenyl)thiazole-5-carboxamide]
19 | 1 to 11 µM | W (10-<100 fold) | 0.05 to 1 µM | – | – | – | – | – | – | CCOC(=O)CCCn1ccc(Nc2ncc(C(=O)Nc3c(C)ccc(O)c3C)s2)n1 [BAA-022]
20 | 1 to 11 µM | X (100-<1000 fold) | < 0.05 µM | – | – | – | – | – | – | CCOC(=O)Cn1ccc(Nc2ncc(C(=O)Nc3c(C)ccc(O)c3C)s2)n1 [BAA-023]
21 | 1 to 11 µM | X (100-<1000 fold) | < 0.05 µM | – | – | – | – | – | – | CCOC(=O)c1cc(Nc2ncc(C(=O)Nc3c(C)ccc(O)c3C)s2)nn1C [BAA-024]
22 | > 11 µM | X (100-<1000 fold) | 0.05 to 1 µM | – | – | – | – | – | – | Cc1ccc(O)c(C)c1NC(=O)c1cnc(Nc2ccn(C(F)F)n2)s1 [BAA-025, 2-[[1-(difluoromethyl)pyrazol-3-yl]amino]-N-(3-hydroxy-2,6-dimethyl-phenyl)thiazole-5-carboxamide]
23 | > 11 µM | X (100-<1000 fold) | 0.05 to 1 µM | – | – | – | – | – | – | Cc1ccc(O)c(C)c1NC(=O)c1cnc(Nc2ncco2)s1 [BAA-027, N-(3-hydroxy-2,6-dimethyl-phenyl)-2-(oxazol-2-ylamino)thiazole-5-carboxamide]
24 | > 11 µM | X (100-<1000 fold) | < 0.05 µM | – | – | – | – | – | – | Cc1ccc(O)c(C)c1NC(=O)c1cnc(Nc2nncs2)s1 [BAA-028, N-(3-hydroxy-2,6-dimethyl-phenyl)-2-(1,3,4-thiadiazol-2-ylamino)thiazole-5-carboxamide]
